What was measured:
dog STING (dSTING) = assay: Dog differential scanning fluorimetry (DSF) assay, thermal shift of dog STING protein; type: binding; details: DSF (dDSF); 100 μM compound, 3 μM dog STING protein; Tm with ligand minus Tm of protein alone
Excerpt: The protein used for the biophysical experiments was a recombinant dog STING protein comprising its cytosolic cGAMP binding ectodomain. A codon optimized DNA sequence (for expression in Escherichia coli) encoding amino acid residues 149 to 375 of dog STING was synthesized by GeneArt (Regensburg, Germany) and inserted into a pET17b E. coli expression vector. The protein construct encodes an N-terminal 8×His-tag followed by tobacco etch virus protease (TEV) cleavage site and the above STING gene sequence. The resulting protein sequence for the used dog STING protein (SEQ ID No. 1) is listed below:
For expression of the above recombinant dog STING, the construct was transformed into E. coli BL21 DE3 strain and grown in shake flasks in LB-medium at 15° C. Expression was induced by addition of isopropyl β-D-1-thiogalactopyranoside to a final concentration of 1 mM and cultures shaken overnight. Cell pellets were centrifuged and stored at −70° C. until further use. Protein was purified by cell thawing in lysis buffer (20 mM TRIS-HCl, pH 8, 500 mM NaCl, 1 mM DTT, 0.5 mg/ml lysozyme, Complete Protease Inhibitor (Roche) and DNase (Roche)), followed by metal affinity purification using Ni-NTA resins and elution buffer consisting of 20 mM TRIS-HCl, pH 8, 500 mM NaCl, 1 mM DTT, 300 mM imidazole. Cleavage of the His-Tag using TEV-protease took place during dialysis in size exclusion buffer (20 mM TRIS-HCl, pH 8, 100 mM NaCl, 1 mM DTT) over night. To further purify the target protein a reverse Nickel affinity column was used and the flow through was applied to a size exclusion chromatography. The peak fraction was collected and concentrated to 5 mg/mL.
Dye fluorescence is quenched in aqueous environment and increases upon association of the dye with the hydrophobic parts of the unfolding protein. […] The inflection point of the curve represents the “melting” temperature of the protein (Tm) which is calculated numerically using the Boltzmann equation.
The thermal stability of the dog STING protein was measured in assay buffer containing 20 mM Tris, 150 mM NaCl at pH7.5. The assay uses 384-Well qPCR Plates (Catalog #781358, BRAND), Microseal® ‘B’ Adhesive Seals for PCR Plates (Catalog #MSB-1001, BIO-RAD) and was run on a CFX384 Real-Time System (Bio-Rad). A DMSO stock solution of SYPRO orange (SIGMA 55692-500UL) was prepared. Compound stock solutions (10 mM in DMSO) were diluted 1:2 in DMSO to an intermediate compound concentration of 5 mM and then further diluted 1:40 in assay buffer resulting in a compound concentration of 125 μM and 2.5% DMSO. Fluorescent dye stock solution (5000×SYPRO Orange) was then mixed with target protein and buffer to a concentration of 15 μM Protein and 25×SYPRO Orange. 2 μl of this protein-dye-mixture was added to 8 μl compound solution. Final volume was 10 μL. 3-6 well positions were used as negative control (protein with 2% DMSO). The plates were prepared for duplicate measurement and centrifuged for 2 min at 1000 g. In the measurement, 160 cycles of 0.5° C. were used (temperature ramp 15 s/cycle, 15° C. to 95° C.).
Final Assay concentrations for compound characterization were 100 μM compound, 3 μM target protein, 5×SYPRO Orange, and 2% DMSO in 10 μl. All dispensing steps were performed using a HamiltonStar pipetting robot (Hamilton).
Dissociation curves were processed in Bio-Rad CFX Manager. Peak type was set to “negative”. Compound codes for screen were assigned in the plate layout.
Two replicates of TM measurements were averaged, and the standard deviation was calculated. In cases of SD>1.5° C. the measurement was repeated.
The melting point (Tm) obtained for STING protein alone was subtracted from T obtained for protein incubated with ligand to generate ΔTm values.

STING = STING (Canis lupus familiaris, UniProt A0A8I3MH52); assay: Dog whole blood (dWB) assay, IFNb secretion by ELISA; type: cell-based; details: canine Interferon-beta (IFNb) ELISA, 4 h incubation at 37° C.
Procedure: For the detection of STING activation in physiological environment dog whole blood (dWB) was stimulated by the cyclic dinucleotide cGAMP or a test compound. Pathway activity was monitored by measuring the IFNb production.
Compounds were delivered as 10 mM DMSO solution, diluted and transferred by using an Echo acoustic dispenser to the 384 well assay plate (Greiner #781182), pre-filled with 10 μl 1×HBSS in each well (10×HBSS (+Ca/+Mg), #14065-049, Gibco). Typically, 8 concentrations were used with the highest concentration at 10 μM in the final assay volume followed by approximately 1:4 dilution steps. DMSO concentration was set to 0.1% in the final assay volume. The 384-well assay plate contained 20 test compounds and DMSO in control and cGAMP standard wells. The dog whole blood was collected as Na-Citrate blood (e.g., 3.8% in Monovettes from Sarstedt) and kept at 4° C. overnight until use in the assay. 80 μl of the whole blood samples were transferred to each well of the 384-well assay plates filled with compound/1×HBSS. Blood plates were kept at room temperature for 60 minutes and continuous shaking with 450 rpm, covered with the lid, but not sealed. A 10×cGAMP assay solution was diluted from a 2 mM stock solution in 1×HBSS immediately before use at room temperature. 10 μl of the 10×cGAMP/HBSS were added to the high control wells, whereas HBSS only was added to all compound and low control wells. After covering assay plates with the lid, blood plates were kept for a 4 h incubation at 37° C. in the incubator, without shaking. For the detection of IFNb in dog plasma the ELISA Kit for Canine Interferon Beta (Biotrend #SEA222Ca) was used. Whole blood assay plates were centrifuged at 1000 g for 10 minutes at 8° C. […] was transferred with a 96 well pipetting robotics from the 384 well whole blood plate to the corresponding 96 well ELISA plate, pre-filled with 60 μl assay diluent in each well. Plates were sealed with microplate seals and kept at 4° C. overnight again. ELISA plates were brought to room temperature, followed by a 1 h incubation at 37° C. in the incubator. Detection Reagent A working solution was prepared by diluting Detection Reagent A 1:100 in Assay Reagent A. Liquid was then removed from the 96 well ELISA plate to add 100 μL Detection Reagent A working solution to each well. ELISA plates were covered with the plate sealer and incubated for 1 hour at 37° C. in the incubator. The 1× Wash buffer was prepared by diluting the 30× Wash Buffer Concentrate in H2O. Detection Reagent B working solution was prepared by diluting Detection Reagent B 1:100 in Assay Reagent B. The ELISA plates were washed three times with 350 μl wash buffer and afterwards inverted and blotted against absorbent paper to remove any liquid. 100 μL of Detection Reagent B working solution was added to each well of the ELISA plates, which are then covered with the plate sealer and incubated for 30 minutes at 37° C. in the incubator. After incubation the ELISA assay plates were washed five times with 350 μl wash buffer and were again inverted and blotted against absorbent paper to remove any remaining liquid. 90 μL of TMB Substrate was added to each well of the ELISA plates, which were then covered with the plate sealer and incubated for 15 minutes at 37° C. in the incubator. The reaction was stopped by adding 50 μL stop solution and absorbance was measured at 450 nm immediately.
For data evaluation and calculation, % control calculation of each well was based on the mean of high (cGAMP stimulated control) and mean of low (unstimulated control) controls by using the following standard 4 parameter logistic regression formula:
[y=(a−d)/(1+(x/c)^b)+d] • a=low value, • d=high value, • x=conc M, • c=EC50 M, • b=slope. Dog Liver Microsome (dLM) Assay

Chain of STING (A0A8I3MH52 1-374): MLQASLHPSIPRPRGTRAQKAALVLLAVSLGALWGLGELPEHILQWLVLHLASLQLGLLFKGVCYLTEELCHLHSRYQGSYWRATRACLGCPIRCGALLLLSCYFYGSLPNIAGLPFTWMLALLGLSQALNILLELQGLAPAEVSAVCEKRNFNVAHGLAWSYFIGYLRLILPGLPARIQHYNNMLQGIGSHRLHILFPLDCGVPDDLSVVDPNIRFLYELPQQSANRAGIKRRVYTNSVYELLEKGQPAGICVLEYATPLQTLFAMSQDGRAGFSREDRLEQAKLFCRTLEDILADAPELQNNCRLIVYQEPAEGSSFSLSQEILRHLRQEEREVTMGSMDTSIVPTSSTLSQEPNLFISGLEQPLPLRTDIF

2-[4-(5-{3″-fluoro-2″,7-dimethyl- 1H,2″H-[3,4″-biindazol]-1-yl}pyridin-2- yl)morpholin-2-yl]acetic acid [Example 18]
Delta TM (dog STING (dSTING)): 28.8 °C | EC50 (STING): 1070 nM

Cc1cccc2c(-c3cccc4nn(C)c(F)c34)nn(-c3ccc(N4CC5CCC4CC5C(=O)O)nc3)c12 (single isomer, unassigned) [Example 20-3, 2-(5-{3'-fluoro-2',7-dimethyl-1H,2'H-[3,4'-biindazol]-1-yl}pyridin-2-yl)-2-azabicyclo[2.2.2]octane-5-carboxylic acid]
Delta TM (dog STING (dSTING)): 35.9 °C | EC50 (STING): 195 nM

Cc1cccc2c(-c3cccc4nn(C)c(F)c34)nn(-c3ccc(N4CC5CCC4CC5C(=O)O)nc3)c12 (single isomer, unassigned) [Example 20-4, 2-(5-{3'-fluoro-2',7-dimethyl-1H,2'H-[3,4'-biindazol]-1-yl}pyridin-2-yl)-2-azabicyclo[2.2.2]octane-5-carboxylic acid]
Delta TM (dog STING (dSTING)): 36.9 °C | EC50 (STING): 207 nM

Cc1cccc2c(-c3c(F)ccc4nn(C)cc34)nn(-c3ccc(N4CC5CCC4CC5C(=O)O)nc3)c12 (single isomer, unassigned) [Example 28-3]
Delta TM (dog STING (dSTING)): 37.1 °C | EC50 (STING): 222 nM

Cc1cccc2c(-c3c(F)ccc4nn(C)cc34)nn(-c3ccc(N4CC5CCC4CC5C(=O)O)nc3)c12 (single isomer, unassigned) [Example 28-4]
Delta TM (dog STING (dSTING)): 37.9 °C | EC50 (STING): 206 nM

Cc1cccc2c(-c3c(F)cc(F)c4nn(C)cc34)nn(-c3ccc(N4C[C@@H]5C[C@H]4C[C@H]5C(=O)O)nc3)c12 (single isomer, unassigned) [Example 47-1]
Delta TM (dog STING (dSTING)): 34.0 °C | EC50 (STING): 628 nM

Cc1cccc2c(-c3c(F)cc(F)c4nn(C)cc34)nn(-c3ccc(N4C[C@H]5C[C@@H]4C[C@@H]5C(=O)O)nc3)c12 (single isomer, unassigned) [Example 47-2]
Delta TM (dog STING (dSTING)): 35.5 °C | EC50 (STING): 200 nM

Cc1cccc2c(-c3c(F)cc(F)c4nn(C)cc34)nn(-c3ccc(N4CC5CCC4CC5C(=O)O)nc3)c12 (single isomer, unassigned) [Example 48-3]
Delta TM (dog STING (dSTING)): 35.4 °C | EC50 (STING): 184 nM

Cc1cccc2c(-c3c(F)cc(F)c4nn(C)cc34)nn(-c3ccc(N4CC5CCC4CC5C(=O)O)nc3)c12 (single isomer, unassigned) [Example 48-4]
Delta TM (dog STING (dSTING)): 36.1 °C | EC50 (STING): 169 nM

Cc1cccc2c(-c3cccc4nn(C)c(F)c34)nn(-c3ccc(N4CCOC(CC(=O)O)C4)nc3)c12 (single isomer, unassigned) [Example 72-1]
Delta TM (dog STING (dSTING)): 30.0 °C | EC50 (STING): 810 nM

Cc1cccc2c(-c3cccc4nn(C)c(F)c34)nn(-c3ccc(N4CCOC(CC(=O)O)C4)nc3)c12 (single isomer, unassigned) [Example 72-3]
Delta TM (dog STING (dSTING)): 28.5 °C | EC50 (STING): 5230 nM

Cc1cccc2c(-c3cccc4nn(C)c(F)c34)nn(-c3ccc(N4CCC(C(=O)O)CC4)nc3)c12 [Example 2, 1-(5-{3″-Fluoro-2″,7-dimethyl-1H,2″H-[3,4″-biindazol]-1-yl}pyridin-2-yl)piperidine-4-carboxylic acid]
Delta TM (dog STING (dSTING)): 34.5 °C | EC50 (STING): 236 nM

Cc1cccc2c(-c3ccc(F)c4nn(C)cc34)nn(-c3ccc(N4C[C@@H]5[C@H](C4)[C@H]5C(=O)O)nc3)c12 [Example 3, (1R,5S,6R)-3-(5-{7″-Fluoro-2″,7-dimethyl-1H,2″H-[3,4″-biindazol]-1-yl}pyridin-2-yl)-3-azabicyclo[3.1.0]hexane-6-carboxylic acid]
Delta TM (dog STING (dSTING)): 32.2 °C | EC50 (STING): 730 nM

CC(=O)N1CCN(c2ccc(-n3nc(-c4ccc(F)c5nn(C)c(F)c45)c4cccc(C)c43)cn2)CC1 [Example 57, 1-[4-(5-{3″,7″-difluoro-2″,7-dimethyl-1H,2″H-[3,4″-biindazol]-1-yl}pyridin-2-yl)piperazin-1-yl]ethan-1-one]
Delta TM (dog STING (dSTING)): 27.5 °C

Cc1c(F)ccc2c(-c3c(F)cc(F)c4nn(C)cc34)nn(-c3ccc(N4C[C@@H]5[C@H](C4)[C@H]5C(=O)O)nc3)c12 [Example 69, (1R,5S,6S)-3-(5-{5″,6,7″-trifluoro-2″,7-dimethyl-1H,2″H-[3,4″-biindazol]-1-yl}pyridin-2-yl)-3-azabicyclo[3.1.0]hexane-6-carboxylic acid]
Delta TM (dog STING (dSTING)): 35.0 °C

CC(=O)N1CCN(c2ccc(-n3nc(-c4c(F)cc(F)c5nn(C)cc45)c4ccc(F)c(C)c43)cn2)CC1 [Example 71, 1-[4-(5-{5″,6,7″-trifluoro-2″,7-dimethyl-1H,2″H-[3,4″-biindazol]-1-yl}pyridin-2-yl)piperazin-1-yl]ethan-1-one]
Delta TM (dog STING (dSTING)): 31.3 °C

Cc1cccc2c(-c3cc(F)cc4nn(C)c(F)c34)nn(-c3ccc(N4C[C@@H]5[C@H](C4)[C@H]5C(=O)O)nc3)c12 [Example 75, (1R,5S,6R)-3-(5-{3″,6″-difluoro-2″,7-dimethyl-1H,2″H-[3,4″-biindazol]-1-yl}pyridin-2-yl)-3-azabicyclo[3.1.0]hexane-6-carboxylic acid]
Delta TM (dog STING (dSTING)): 21.8 °C
